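Test compounds were applied to cells in 96-well plates for 48 hours at 5 doses. Abbreviation: GI50, concentration required for 50% inhibition of growth. TGI denotes the concentration required for complete inhibition of growth.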
Columns and labels:
Assay in all cases: inhibition of tumour cell growth, NCI panel, 48 h
[1] = tested on: 786-0 renal
[2] = tested on: A498 renal
[3] = tested on: A549 NSCLC
[4] = tested on: ACHN renal
[5] = tested on: BT-549 breast
[6] = tested on: CAKI-1 renal
[7] = tested on: CCRF-CEM leukemia
[8] = tested on: COLO 205 colon
[9] = tested on: DU-145 prostate
[10] = tested on: EKVX NSCLC
[11] = tested on: HCC-2998 colon
[12] = tested on: HCT-116 colon
[13] = tested on: HCT-15 colon
[14] = tested on: HL-60(TB) leukemia
[15] = tested on: HOP-62 NSCLC
[16] = tested on: HOP-92 NSCLC
[17] = tested on: HS 578T breast
[18] = tested on: HT29 colon
[19] = tested on: IGROV1 ovarian
[20] = tested on: K-562 leukemia
[21] = tested on: KM12 colon
[22] = tested on: LOX IMVI melanoma
[23] = tested on: M14 melanoma
[24] = tested on: MALME-3M melanoma
[25] = tested on: MCF7 breast
[26] = tested on: MDA-MB-231 breast
[27] = tested on: MOLT-4 leukemia
[28] = tested on: NCI-H226 lung
[29] = tested on: NCI-H23 lung
[30] = tested on: NCI-H460 lung
[31] = tested on: NCI-H522 lung
[32] = tested on: NCI/ADR-RES ovarian
[33] = tested on: OVCAR-4 ovarian
[34] = tested on: OVCAR-5 ovarian
[35] = tested on: OVCAR-8 ovarian
[36] = tested on: PC-3 prostate
[37] = tested on: RPMI-8226 leukemia
[38] = tested on: RXF 393 renal
[39] = tested on: SF-268 CNS
[40] = tested on: SF-295 CNS
[41] = tested on: SF-539 CNS
[42] = tested on: SK-MEL-2 melanoma
[43] = tested on: SK-MEL-28 melanoma
[44] = tested on: SK-MEL-5 melanoma
[45] = tested on: SK-OV-3 ovarian
[46] = tested on: SN12C renal
[47] = tested on: SNB-19 CNS
[48] = tested on: SNB-75 CNS
[49] = tested on: SR leukemia
[50] = tested on: SW-620 colon
[51] = tested on: T-47D breast
[52] = tested on: TK-10 renal
[53] = tested on: U251 CNS
[54] = tested on: UACC-257 melanoma
[55] = tested on: UACC-62 melanoma
[56] = tested on: UO-31 renal

Structure (SMILES): COc1ccc(Cn2cc3c(c2-c2cc(OC)c(OC)c(OC)c2)CCc2c(CN4CCOCC4)noc2-3)cc1
- GI50 [1]: 668 nM
- TGI [1]: > 100 µM
- GI50 [2]: 305 nM
- TGI [2]: 1030 nM
- GI50 [3]: 1130 nM
- TGI [3]: > 100 µM
- GI50 [4]: 718 nM
- TGI [4]: > 100 µM
- GI50 [5]: 1140 nM
- TGI [5]: 4.97 µM
- GI50 [6]: 565 nM
- TGI [6]: > 100 µM
- GI50 [7]: 1070 nM
- TGI [7]: > 100 µM
- GI50 [8]: 1230 nM
- TGI [8]: 6.08 µM
- GI50 [9]: 2190 nM
- TGI [9]: > 100 µM
- GI50 [10]: 1350 nM
- TGI [10]: > 100 µM
- GI50 [11]: 1740 nM
- TGI [11]: > 100 µM
- GI50 [12]: 443 nM
- TGI [12]: > 100 µM
- GI50 [13]: 457 nM
- TGI [13]: > 100 µM
- GI50 [14]: 387 nM
- TGI [14]: 13.1 µM
- GI50 [15]: 1030 nM
- TGI [15]: > 100 µM
- GI50 [16]: 667 nM
- TGI [16]: > 100 µM
- GI50 [17]: 432 nM
- TGI [17]: > 100 µM
- GI50 [18]: 637 nM
- TGI [18]: > 100 µM
- GI50 [19]: 871 nM
- TGI [19]: > 100 µM
- GI50 [20]: 399 nM
- TGI [20]: > 100 µM
- GI50 [21]: 435 nM
- TGI [21]: > 100 µM
- GI50 [22]: 446 nM
- TGI [22]: > 100 µM
- GI50 [23]: 555 nM
- TGI [23]: > 100 µM
- GI50 [24]: 495 nM
- TGI [24]: > 100 µM
- GI50 [25]: 362 nM
- TGI [25]: > 100 µM
- GI50 [26]: 2810 nM
- TGI [26]: > 100 µM
- GI50 [27]: 2590 nM
- TGI [27]: > 100 µM
- GI50 [28]: 821 nM
- TGI [28]: > 100 µM
- GI50 [29]: 1850 nM
- TGI [29]: > 100 µM
- GI50 [30]: 506 nM
- TGI [30]: > 100 µM
- GI50 [31]: 269 nM
- TGI [31]: 816 nM
- GI50 [32]: 450 nM
- TGI [32]: > 100 µM
- GI50 [33]: 18.6 µM
- TGI [33]: > 100 µM
- GI50 [34]: 3.22 µM
- TGI [34]: > 100 µM
- GI50 [35]: 1800 nM
- TGI [35]: > 100 µM
- GI50 [36]: 550 nM
- TGI [36]: > 100 µM
- GI50 [37]: 1160 nM
- TGI [37]: > 100 µM
- GI50 [38]: 382 nM
- TGI [38]: > 100 µM
- GI50 [39]: 870 nM
- TGI [39]: > 100 µM
- GI50 [40]: 426 nM
- TGI [40]: > 100 µM
- GI50 [41]: 448 nM
- TGI [41]: > 100 µM
- GI50 [42]: 549 nM
- TGI [42]: > 100 µM
- GI50 [43]: > 47.7 µM
- TGI [43]: > 100 µM
- GI50 [44]: 1150 nM
- TGI [44]: 14.3 µM
- GI50 [45]: 1470 nM
- TGI [45]: > 100 µM
- GI50 [46]: 3.67 µM
- TGI [46]: > 100 µM
- GI50 [47]: 1150 nM
- TGI [47]: > 100 µM
- GI50 [48]: 308 nM
- TGI [48]: > 100 µM
- GI50 [49]: 350 nM
- TGI [49]: > 100 µM
- GI50 [50]: 458 nM
- TGI [50]: > 100 µM
- TGI [51]: > 100 µM
- GI50 [52]: > 100 µM
- TGI [52]: > 100 µM
- GI50 [53]: 779 nM
- TGI [53]: > 100 µM
- GI50 [54]: 963 nM
- TGI [54]: > 100 µM
- GI50 [55]: 488 nM
- TGI [55]: > 100 µM
- GI50 [56]: 674 nM
- TGI [56]: > 100 µM
